The target in assay [1] is T1, WEE1 kinase enzyme (Homo sapiens, UniProt P30291).
T1 construct: purchased Invitrogen, Life Technologies, Grand Island, N.Y. PR7373A
Put plainly: WEE1 IC50 determination, LanthaScreen Terbium Labeled TR-FRET kinase assay. In kind it is biochemical. The following applies: WEE1 enzyme 1 nM, ATP 10 μM, 1 h. The procedure: IC50 values of compounds against WEE1 kinase enzyme were determined by LanthaScreen™ Terbium Labeled TR-FRET assay. Kinase assays were performed in 1× kinase buffer (#PV6135, Invitrogen, Life Technologies, Grand Island, N.Y.) where total reaction volume is 10 μL in low-volume 384-well plates (#4511, Corning). Serially diluted compounds (3-fold) were incubated with WEE1 Enzyme (1 nM) (#PR7373A, Invitrogen, Life Technologies, Grand Island, N.Y.) for 10 min; a mixture of ATP (10 μM) (#A1852, Sigma, St. Louis, Mo.) and fluorescent-PolyGT substrate (200 nM) (#PV3610, Invitrogen, Life Technologies, Grand Island, N.Y.) was added and incubated in dark at room temperature for 1 h. After 1 h, 10 μL stop solution containing terbium labeled antibody (4 nM) (#PV3529, Invitrogen, Life Technologies, Grand Island, N.Y.) and EDTA (#E5134, Sigma, St. Louis, Mo.) (20 mM) in TR-FRET dilution buffer (#PV3574, Invitrogen, Life Technologies, Grand Island, N.Y.) was added. Readings were taken in a Synergy Neo plate reader (BioTek, Winooski, Vt.) at single excitation of 340 nm and dual emission at 495 nm and 520 nm respectively.
The % activity of test samples was calculated as (Sample−Min)*100/(Max−Min). [Max: DMSO control, complete reaction with enzyme & DMSO and Min: No enzyme & DMSO]. […]
In general terms: In TR-FRET formats the signal depends on donor and acceptor labels being close together.

In assay [2] the test system is U-87 MG. Put plainly: Cytotoxicity assay (resazurin) in U-87 MG cell line. Conditions: Homo sapiens, read-out: U-87 MG IC50. In kind it is cell-based. The procedure: (§1) A427 (HTB-53; ATCC), a lung epithelial cell line, was seeded in medium (MEM, 41090101; Gibco) at a cell count of 1500 cells per 100 μL per well in a 96 well edge plate (167425; ThermoFisher). Cells were allowed to grow at 37° C. for 24 hr in 5% CO2 environment (culture conditions) in a Nuaire incubator (humidified). Serially diluted test compounds (100 μL) within the desired testing concentration ranges were added to the culture plate and the cells further incubated in culture conditions for 72 hr. The experiment was terminated at the designated incubation time by replacing the medium with 100 μL of 1 mM of resazurin (R7017; Sigma) prepared in culture medium, and the plates were further incubated in culture conditions for 4-6 hr. Fluorescence was recorded using a multimodal plate reader (Biotek Synergy Neo) at an excitation wavelength of 535 nm and emission wavelength of 590 nm to obtain relative fluorescence units. Data were analysed as follows: the background fluorescence (blank containing only medium) value was subtracted from each reading and normalized with the vehicle control (DMSO treated cells) to obtain percent survival/proliferation. […] Potency of compounds in other cell lines (such as A549, As-Pc-1, Panc 10.05, A172, U-87 MG) may be determined in an analogous manner.
In general terms: Alamar Blue is a resazurin reagent that responds to reducing activity.

The test system of assay [3] is As-Pc-1. Description: Cytotoxicity assay (resazurin) in As-Pc-1 cell line. It is filed as cell-based. Conditions: Homo sapiens, read-out: As-Pc-1 IC50. The method, then:
as §1

Read-outs that look alike come from different tables or passages of the source.

T1 sequence (P30291 whole entry): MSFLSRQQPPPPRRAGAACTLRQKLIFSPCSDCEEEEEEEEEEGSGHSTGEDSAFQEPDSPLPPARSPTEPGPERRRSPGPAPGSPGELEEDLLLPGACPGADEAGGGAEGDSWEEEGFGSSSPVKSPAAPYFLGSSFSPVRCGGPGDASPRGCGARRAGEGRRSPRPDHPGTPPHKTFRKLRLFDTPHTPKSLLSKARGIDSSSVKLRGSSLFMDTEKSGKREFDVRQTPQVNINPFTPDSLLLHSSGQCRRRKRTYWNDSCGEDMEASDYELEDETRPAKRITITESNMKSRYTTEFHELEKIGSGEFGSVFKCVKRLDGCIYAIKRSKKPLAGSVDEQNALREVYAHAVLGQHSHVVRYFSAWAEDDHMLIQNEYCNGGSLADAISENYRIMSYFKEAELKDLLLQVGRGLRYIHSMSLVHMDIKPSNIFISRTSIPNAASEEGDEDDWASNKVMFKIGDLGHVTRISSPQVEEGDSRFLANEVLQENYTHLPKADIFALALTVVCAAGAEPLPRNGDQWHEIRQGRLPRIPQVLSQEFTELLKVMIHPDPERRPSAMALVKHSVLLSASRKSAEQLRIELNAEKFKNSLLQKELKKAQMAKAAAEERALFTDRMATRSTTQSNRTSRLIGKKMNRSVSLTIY

As usually defined, the IC50 is the midpoint of a concentration-inhibition curve. With `CC1Oc2nc(Nc3ccc4c(c3)CNCC4)ncc2C(=O)N1c1c(Cl)cccc1Cl` (stereo not drawn) [1.44, 3-(2,6-dichlorophenyl)-2-methyl-7-((1,2,3,4-tetrahydroisoquinolin-7-yl)amino)-2,3-dihydro-4H-pyrimido[5,4-e][1,3]oxazin-4-one], the IC50 in assay [1] came out at 0.133 µM; in assay [2] (U-87 MG, 72 h) it was 11.4 µM; in assay [3] (ASPC1, 72 h) it was 19.5 µM.

Regarding `CC1Oc2nc(Nc3ccc4c(c3)CCNC4(C)C)ncc2C(=O)N1c1c(Cl)cccc1Cl` (stereo not drawn) [1.4, 3-(2,6-dichlorophenyl)-7-((1,1-dimethyl-1,2,3,4-tetrahydroisoquinolin-6-yl)amino)-2-methyl-2,3-dihydro-4H-pyrimido[5,4-e][1,3]oxazin-4-one], the IC50 is 0.127 µM in assay [1]; 10.9 µM in assay [2] (U-87 MG cells, 72 hr incubation, inhibition of proliferation); 8.5 µM in assay [3] (ASPC1, As-Pc-1 cells, 72 hr incubation, inhibition of proliferation).

The values are drawn from patent US20220162229A1, “HETEROCYCLIC COMPOUNDS AND USES THEREOF” (Nuvation Bio Inc., priority 2019, published 2022).
